From article PMC6151500 (Molecules : A Journal of Synthetic Chemistry and Natural …, 2017)

Molecular target: Homo sapiens butyrylcholinesterase (hBuChE) (Homo sapiens, UniProt P06276)
Test: Inhibition of hBuChE (Ellman assay, 4PL dose-response)

Chain of Homo sapiens butyrylcholinesterase (hBuChE) (P06276 29-602): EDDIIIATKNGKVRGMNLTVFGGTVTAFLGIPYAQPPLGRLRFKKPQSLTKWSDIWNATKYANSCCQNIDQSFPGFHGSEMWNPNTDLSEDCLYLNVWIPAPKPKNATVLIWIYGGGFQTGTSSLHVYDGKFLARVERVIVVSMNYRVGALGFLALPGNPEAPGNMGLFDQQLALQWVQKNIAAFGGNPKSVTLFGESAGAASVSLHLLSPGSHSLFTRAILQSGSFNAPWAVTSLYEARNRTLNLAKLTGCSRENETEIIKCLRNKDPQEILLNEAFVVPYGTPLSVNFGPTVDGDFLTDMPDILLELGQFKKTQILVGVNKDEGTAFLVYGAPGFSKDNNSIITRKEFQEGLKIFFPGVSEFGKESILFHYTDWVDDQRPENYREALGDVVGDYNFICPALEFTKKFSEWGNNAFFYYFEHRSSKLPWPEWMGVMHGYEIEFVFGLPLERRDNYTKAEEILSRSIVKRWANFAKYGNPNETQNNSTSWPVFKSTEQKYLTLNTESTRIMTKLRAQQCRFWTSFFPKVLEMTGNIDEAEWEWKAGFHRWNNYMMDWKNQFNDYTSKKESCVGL

CN(C)c1ccc(C(=C2C=CC(=[N+](C)C)C=C2)c2ccc(N(C)C)cc2)cc1 [CV, tris(4-(dimethylamino)phenyl)methylium chloride]
IC50: 900 nM
